This passage reports IC50 results from patent publication US20190151312A1, “HEPARAN SULFATE BIOSYNTHESIS INHIBITORS FOR THE TREATMENT OF DISEASES” (BioMarin Pharmaceutical Inc., priority 2014, published 2019).

For orientation: IC50 means the concentration that gives 50% inhibition.

For one assay, the system named is GM01896 cells (MPS II dermal fibroblasts). The assay can be described thus: Assay 1: MPS cellular assay, MPS II (heparan sulfate disaccharide biomarkers by LC-MS). Format: cell-based, human. Particulars: Assay 1 for MPS II, heparan sulfate disaccharide biomarkers (I2a4, I2a6, I2S0 and/or I2S6), read-out: IC50 Range. Here is the method: Dermal fibroblasts from humans with an MPS disorder and from healthy donors are grown. Cells are expanded and kept in culture for analysis. Human foreskin fibroblasts can be obtained from the American Type Culture Collection (CRL-1634). Human dermal fibroblasts derived from biopsies of individuals are purchased from Coriell Institute: clinically healthy individuals, GM00408, GM00409, GM00200 (clinically unaffected sibling of an individual with metachromatic leukodystrophy), GM05659, GM08398, and GM15871 (clinically unaffected sibling of an individual with unclassified Ehlers-Danlos syndrome); heterozygous MPS I carriers, GM01392, GM01393 and GM0003; homozygous individuals affected with MPS I, GM06214, GM11495, GM00034, GM01391 and GM01256; individuals with MPS II, GM01896, GM03181, GM00615 and GM00298; individuals with MPS IIIA, GM00879, GM00643, GM00934, GM06110 and GM00629; MPS IIIB, GM01426; MPS IIIC, GM05157; MPS IIID, GM05093; and MPS VII, GM00121. All cells are grown in DMEM containing 50 U ml-1 penicillin, […] ml-1 streptomycin, 2 mM glutamine and 10% FBS. Cells are seeded on 15-cm-diameter tissue culture dishes, grown to confluence and maintained in culture for analysis. Sulfamidase activity in cell extracts is measured with 4-methylumbelliferyl-α-D-N-sulfoglucosaminide according the vendors instructions substituting Tris-acetate buffer (pH 6.5; Moscerdam).
Cells are treated with a compound of the invention at a concentration at or below 30 μM for 4 to 21 days. Cell monolayers are washed with phosphate buffered saline and detached by treatment with GIBCO trypsin-EDTA solution (Invitrogen). After centrifugation, the supernatant is removed and the cells are lysed in 0.5 mL of 0.1 N sodium hydroxide. The amount of protein is determined by bicinchoninic acid (BCA assay, Thermo Scientific). GAGs are isolated by anion exchange chromatography and digested with glycosaminoglycan lyases (heparinases I, II, and III, IBEX).
Enzymatically depolymerized GAG preparations are differentially mass labeled by reductive amination with [^12C6]aniline. Briefly, heparan sulfate disaccharides (1-10 pmol) are dried down in a centrifugal evaporator and reacted with [^12C6]aniline or [^13C6]aniline (15 μL, 165 μmol) and 15 μL of 1 M NaCNBH3 (Sigma-Aldrich) freshly prepared in dimethylsulfoxide/acetic acid (7:3, v/v) is added to each sample. Reactions are carried out at 37° C. for 16 h and then dried in a centrifugal evaporator. Unsubstituted amines are reacted with propionic anhydride (Sigma-Aldrich). Dried samples are reconstituted in 20 μL of 50% methanol, and 3 μL of propionic anhydride (Sigma-Aldrich, 23.3 μmol) is added. Reactions are carried out at ˜23° C. for 2 h. Acylated disaccharides are subsequently aniline tagged as described above. Each sample is mixed with commercially available standard unsaturated disaccharides (Seikagaku), standard N-sulfoglucosamine, glucosamine-6-sulfate, N-acetylgalactosamine-4-sulfate and N-acetylgalactosamine-6-sulfate (Sigma-Aldrich), and/or synthesized α-L-idopyranosyluronate-(1,4)-2-N-acetyl-2-deoxy-α/β-D-glucopyranoside (I0S0). All standards are tagged with [^13C6]aniline (Sigma-Aldrich). Samples are then analyzed by LC-MS using an LTQ Orbitrap Discovery electrospray ionization mass spectrometer (Thermo Scientific) equipped with quaternary HPLC pump (Finnigan Surveyor MS pump) and a reverse-phase capillary column as described in J. Biol. Chem. 2008, 283(48), 33674.
MPS II: Assay 1, as described above, was used to determine activity for MPS II using GM01896 cells. […] Extracted ion chromatograms were obtained. Cell viability was monitored using alamar blue or ATP quantification. IC50's were calculated using curve fitting within the ChemInnovation CBIS database system.
Take `Cn1ccc2ccc(Nc3cc(-c4ccc5c(CCCN6CCCC6)nn(C)c5c4)nc(N4CCOCC4)n3)cc21` [(1-methylindol-6-yl) {6-[1-methyl-3-(3-pyrrolidinylpropyl)(1H-indazol-6-yl)]-2-morpholin-4-ylpyrimidin-4-yl}amine]: the half-inhibitory concentration (IC50) was in the range of 500 to 1000 nM.

The assay is the same for the next values; noted with them: Homo sapiens, Fibroblast, Assay 1 for MPS II, heparan sulfate disaccharide biomarkers (I2a4, I2a6, I2S0 and/or I2S6), read-out: IC50 Range.
For `Cc1cc2ccc(Nc3cc(-c4ccc5c(CCN6CCOCC6)nn(C)c5c4)nc(N4CCOCC4)n3)cc2n1C` [(1,2-dimethylindol-6-yl){6-[1-methyl-3-(2-morpholin-4-ylethyl)(1H-indazol-6-yl)]-2-morpholin-4-ylpyrimidin-4-yl}amine], the concentration for half-maximal inhibition (IC50) lay within 500 to 1000 nM.

On to `Cc1cn(C)c2cc(Nc3cc(-c4ccc5c(CCN6CCOCC6)nn(C)c5c4)nc(N4CCOCC4)n3)ccc12` [(1,3-dimethylindol-6-yl){6-[1-methyl-3-(2-morpholin-4-ylethyl)(1H-indazol-6-yl)]-2-morpholin-4-ylpyrimidin-4-yl}amine], for which the 50% inhibitory concentration (IC50) lay within 500 to 1000 nM.

Take `Cn1nc(CCN2CCOCC2)c2ccc(-c3cc(Nc4ccc5ccn(C6CC6)c5c4)nc(N4CCOCC4)n3)cc21` [(1-cyclopropylindol-6-yl) {6-[1-methyl-3-(2-morpholin-4-ylethyl)(1H-indazol-6-yl)]-2-morpholin-4-ylpyrimidin-4-yl}amine]: the IC50 was in the range of 1000 to 5000 nM.

On to `CCn1ccc2ccc(Nc3cc(-c4ccc5cnn(C)c5c4)nc(N4CCOCC4)n3)cc21` [(1-ethylindol-6-yl)[6-(1-methyl(1H-indazol-6-yl))-2-morpholin-4-ylpyrimidin-4-yl]amine], for which the IC50 was in the range of 1000 to 5000 nM.

`Cn1ncc2cc(Nc3cc(-c4ccc5cnn(C)c5c4)nc(N4CCOCC4)n3)ccc21` [(1-methyl(1H-indazol-5-yl))[6-(1-methyl(1H-indazol-6-yl))-2-morpholin-4-ylpyrimidin-4-yl]amine]: the 50% inhibitory concentration (IC50) lay within 1000 to 5000 nM.

For `Cn1ncc2ccc(Nc3cc(-c4ccc5cnn(C)c5c4)nc(N4CCOCC4)n3)cc21` [(1-methyl(1H-indazol-6-yl))[6-(1-methyl(1H-indazol-6-yl))-2-morpholin-4-ylpyrimidin-4-yl]amine], the IC50 lay within 1000 to 5000 nM.

On to `Cn1ccc2ccc(Nc3cc(-c4ccc5c(CCN6CCOCC6)nn(C)c5c4)nc(N4CCOCC4)n3)cc21` [(1-methylindol-6-yl){6-[1-methyl-3-(2-morpholin-4-ylethyl)(1H-indazol-6-yl)]-2-morpholin-4-ylpyrimidin-4-yl}amine], for which the IC50 was less than 500 nM.

For `COc1cc(Nc2cc(-c3ccc4c(cnn4C)c3)nc(N3CCOCC3)n2)ccn1` [(2-methoxy(4-pyridyl))[6-(1-methyl(1H-indazol-5-yl))-2-morpholin-4-ylpyrimidin-4-yl]amine], the IC50 lay in the range of 1000 to 5000 nM.

Regarding `COc1cc(Nc2cc(-c3ccc4cnn(C)c4c3)nc(N3CCOCC3)n2)ccn1` [(2-methoxy(4-pyridyl))[6-(1-methyl(1H-indazol-6-yl))-2-morpholin-4-ylpyrimidin-4-yl]amine], the half-maximal inhibitory concentration (IC50) fell in the range of 500 to 1000 nM.

Turning to `COc1cc(Nc2cc(-c3ccc4c(c3)ncn4C)nc(N3CCOCC3)n2)ccn1` [(2-methoxy(4-pyridyl))[6-(1-methylbenzimidazol-5-yl)-2-morpholin-4-ylpyrimidin-4-yl]amine], the IC50 lay within 1000 to 5000 nM.

As to `COc1cc(Nc2cc(-c3ccc4ncn(C)c4c3)nc(N3CCOCC3)n2)ccn1` [(2-methoxy(4-pyridyl))[6-(1-methylbenzimidazol-6-yl)-2-morpholin-4-ylpyrimidin-4-yl]amine], the 50% inhibitory concentration (IC50) is 500 to 1000 nM.

Regarding `Cc1nn(C)c2cc(-c3cc(Nc4ccc(-c5cnn[nH]5)cc4)nc(N4CCOCC4)n3)ccc12` [(4-(1H-1,2,3-triazol-5-yl)phenyl)[6-(1,3-dimethyl(1H-indazol-6-yl))-2-morpholin-4-ylpyrimidin-4-yl]amine], the IC50 was 500 to 1000 nM.

On to `Cn1ncc2ccc(-c3cc(Nc4ccc(-c5cnn[nH]5)cc4)nc(N4CCOCC4)n3)cc21` [(4-(1H-1,2,3-triazol-5-yl)phenyl)[6-(1-methyl(1H-indazol-6-yl))-2-morpholin-4-ylpyrimidin-4-yl]amine], for which the IC50 was in the range of 1000 to 5000 nM.

In the case of `Cc1nn(C)c2cc(-c3cc(Nc4ccc(-c5nnc[nH]5)cc4)nc(N4CCOCC4)n3)ccc12` [(4-(4H-1,2,4-triazol-3-yl)phenyl)[6-(1,3-dimethyl(1H-indazol-6-yl))-2-morpholin-4-ylpyrimidin-4-yl]amine], the half-maximal inhibitory concentration (IC50) is less than 500 nM.

Take `Cc1nn(C)c2cc(-c3cc(Nc4ccc(-c5nnc[nH]5)cc4)nc(N4CCOCC4)n3)cnc12` [(4-(4H-1,2,4-triazol-3-yl)phenyl)[6-(1,3-dimethylpyrazolo[4,5-b]pyridin-6-yl)-2-morpholin-4-ylpyrimidin-4-yl]amine]: the half-inhibitory concentration (IC50) is less than 500 nM.

`Cn1ncc2ccc(-c3cc(Nc4ccc(-c5nnc[nH]5)cc4)nc(N4CCOCC4)n3)cc21` [(4-(4H-1,2,4-triazol-3-yl)phenyl)[6-(1-methyl(1H-indazol-6-yl))-2-morpholin-4-ylpyrimidin-4-yl]amine]: the IC50 is less than 500 nM.

Turning to `Cn1ncc2ncc(-c3cc(Nc4ccc(-c5nnc[nH]5)cc4)nc(N4CCOCC4)n3)cc21` [(4-(4H-1,2,4-triazol-3-yl)phenyl)[6-(1-methylpyrazolo[4,5-b]pyridin-6-yl)-2-morpholin-4-ylpyrimidin-4-yl]amine], the IC50 is less than 500 nM.

As for `Cn1cnc2ccc(-c3cc(Nc4ccc(Br)cc4)nc(N4CCOCC4)n3)cc21` [(4-bromophenyl)[6-(1-methylbenzimidazol-6-yl)-2-morpholin-4-ylpyrimidin-4-yl]amine], the IC50 was 500 to 1000 nM.

As for `Cn1nc(CCN2CCOCC2)c2ccc(-c3cc(Nc4ccc(Br)cc4)nc(N4CCOCC4)n3)cc21` [(4-bromophenyl){6-[1-methyl-3-(2-morpholin-4-ylethyl)(1H-indazol-6-yl)]-2-morpholin-4-ylpyrimidin-4-yl}amine], the 50% inhibitory concentration (IC50) was 500 to 1000 nM.

Take `CN1CCN(CCn2ncc3ccc(-c4cc(Nc5ccc(Cl)cc5)nc(N5CCOCC5)n4)cc32)CC1` [(4-chlorophenyl)(6-{1-[2-(4-methylpiperazinyl)ethyl](1H-indazol-6-yl)}-2-morpholin-4-ylpyrimidin-4-yl)amine]: the concentration for half-maximal inhibition (IC50) was 500 to 1000 nM.

On to `CN1CCN(CCCn2ncc3ccc(-c4cc(Nc5ccc(Cl)cc5)nc(N5CCOCC5)n4)cc32)CC1` [(4-chlorophenyl)(6-{1-[3-(4-methylpiperazinyl)propyl](1H-indazol-6-yl)}-2-morpholin-4-ylpyrimidin-4-yl)amine], for which the concentration for half-maximal inhibition (IC50) lay in the range of 500 to 1000 nM.

Regarding `CN1CCN(CCc2nn(C)c3cc(-c4cc(Nc5ccc(Cl)cc5)nc(N5CCOCC5)n4)ccc23)CC1` [(4-chlorophenyl)(6-{1-methyl-3-[2-(4-methylpiperazinyl)ethyl](1H-indazol-6-yl)}-2-morpholin-4-ylpyrimidin-4-yl)amine], the 50% inhibitory concentration (IC50) lay in the range of 500 to 1000 nM.

For the compound `Cn1nc(NCCN2CCOCC2)c2ccc(-c3cc(Nc4ccc(Cl)cc4)nc(N4CCOCC4)n3)cc21` [(4-chlorophenyl)(6-{1-methyl-3-[(2-morpholin-4-ylethyl)amino](1H-indazol-6-yl)}-2-morpholin-4-ylpyrimidin-4-yl)amine], the IC50 lay in the range of 500 to 1000 nM.

As to `Cn1nc(NCCN2CCCC2)c2ccc(-c3cc(Nc4ccc(Cl)cc4)nc(N4CCOCC4)n3)cc21` [(4-chlorophenyl)(6-{1-methyl-3-[(2-pyrrolidinylethyl)amino](1H-indazol-6-yl)}-2-morpholin-4-ylpyrimidin-4-yl)amine], the IC50 lay within 500 to 1000 nM.
